± gives the expanded uncertainty stated by the source.

Here are results for three compounds from the NIST ThermoML archive (doi:10.1021/acs.jced.7b00802).

For the data set the following is noted: Liquid, Ebulliometric method (Recirculating still).

For `COCCOC` [1,2-dimethoxyethane], where the note is “357.75 K”, the “vapor or sublimation pressure” value came out at 101.3 ± 0.8 kPa.
On to `CCCCCC` [hexane], for which, where the note is “341.88 K”, the “vapor or sublimation pressure” value amounted to 101.3 ± 0.8 kPa.
For the compound `CC1CCCC1` [methylcyclopentane], where the note is “344.96 K”, the “vapor or sublimation pressure” value is given as 101.3 ± 0.8 kPa.
